Test results published in PMC6081459, “Pathogen-derived HLA-E bound epitopes reveal broad primary anchor pocket tolerability and conformationally malleable peptide binding” (Nature Communications, 2018).
Where two headings read alike, the source gives them in different places.

Experiments:
[1] = tested on: Mamu-E-restricted CD8+ T cells; type: cell-based, rhesus macaques
HLA-E-β2m complexes [2] = type: binding, human; conditions: for Thermal melt (Tm) of peptide-refolded HLA-E-β2m complex: Protein Thermal Shift dye, 5 μg complex, ramp 25 to 95 °C, quadruplicate, median Derivative Tm
[3] = tested on: Mamu-E restricted CD8^+ T cells; type: cell-based, rhesus macaques (Macaca mulatta)
HLA-E-β2m complexes [4] = type: binding, human; conditions: 200 M excess peptide, 2 h at room temperature

Sequence	Rhesus CD8+ T cell responses to peptide presented by Mamu-E versus HLA-E [1]	Thermal melt (Tm) of peptide-refolded HLA-E-β2m complex (HLA-E-β2m complexes [2])	Mamu-E restricted CD8+ T cell responses (IFNγ and/or TNFα, ICS) [3]	Displacement of VL9 from pre-refolded HLA-E-β2m-VL9 complexes (BN-PAGE) (HLA-E-β2m complexes [4])	Mamu-E restricted CD8+ T cell responses (IFNγ and/or TNFα, ICS) ([3]; PBMC of six RM vaccinated with HIVGag-insert RhCMV68-1 vector, blocking with VL9 (MHC-E) or CLIP + anti-MHC-II)	Increase in stability (Tm) of the HLA-E-β2m complex versus no peptide refolded forms (HLA-E-β2m complexes [2]) [°C]
RLPAKAPLL [Mtb44]	of comparable magnitude	50.2 °C	elicited Mamu-E-restricted CD8^+ T cell responses	readily displaced	–	–
RMYSPTSIL [RL9HIV]	of comparable magnitude	not possible to obtain a reproducible thermal melt pattern	–	also displaced VL9 from HLA-E-β2m complexes	elicited Mamu-E restricted CD8^+ T cell responses	–
VMAPRTVLL [VL9, reference compound]	–	47.5 °C	–	–	–	≤ 10
